Results as given in patent publication US12458021B2, “Microbiocidal derivatives” (SYNGENTA CROP PROTECTION AG, priority 2019, dated 2025).

Tests used:
[1] = tested on: Glomerella lagenarium (Colletotrichum lagenarium); assay: Glomerella lagenarium (Colletotrichum lagenarium) / liquid culture (anthracnose); assay type: cell-based; conditions: Colletotrichum orbiculare, PDB potato dextrose broth, 24° C., 3-4 days after application, read-out: control of Glomerella lagenarium (inhibition of growth, photometric)
Method in brief: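 Fungal growth inhibition measured photometrically 3-4 days post-application at 24° C. Spores were mixed directly into potato dextrose broth and dispensed onto test compound supplied in DMSO.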

[2] = tested on: Puccinia recondita f. sp. tritici; assay: Puccinia recondita f. sp. tritici / wheat / leaf disc preventative (brown rust); assay type: in vivo; conditions: foliar, wheat leaf segments cv. Kanzler, inoculated 1 day after application, assessed 7-9 days after application, read-out: control of Puccinia recondita f. sp. tritici, preventative (percent disease control compared to untreated)
Experimental: Example B11: Puccinia recondita f. sp. tritici/Wheat/Leaf Disc Preventative (Brown Rust) Wheat leaf segments cv. Kanzler are placed on agar in multiwell plates (24-well format) and sprayed with the formulated test compound diluted in water. The leaf disks are inoculated with a spore suspension of the fungus 1 day after application. The inoculated leaf segments are incubated at 19° C. and 75% rh under a light regime of 12 h light/12 h darkness in a climate cabinet and the activity of a compound is assessed as percent disease control compared to untreated when an appropriate level of disease damage appears in untreated check leaf segments (7-9 days after application). […] […]-190.

[3] = tested on: Mycosphaerella graminicola (Septoria tritici); assay: Mycosphaerella graminicola (Septoria tritici) / liquid culture (Septoria blotch); assay type: cell-based; conditions: Zymoseptoria tritici, PDB potato dextrose broth, 24° C., 4-5 days after application, read-out: control of Mycosphaerella graminicola (inhibition of growth, photometric)
Method in brief: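 Fungal growth inhibition was read photometrically 4-5 days after application. Compound was dosed from a DMSO solution into liquid cultures of spores in potato dextrose broth, incubated at 24° C.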

[4] = tested on: Monographella nivalis (Microdochium nivale); assay: Monographella nivalis (Microdochium nivale) / liquid culture (foot rot cereals); assay type: cell-based; conditions: PDB potato dextrose broth, 24° C., 4-5 days after application, read-out: control of Monographella nivalis (inhibition of growth, photometric)
Method in brief: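 Growth inhibition measured by photometry 4-5 days post-application at 24° C. Compound was dispensed as DMSO solution, then PDB broth containing conidia from cryogenic storage was added.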

[5] = tested on: Blumeria graminis f. sp. tritici (Erysiphe graminis f. sp. tritici); assay: Blumeria graminis f. sp. tritici / wheat / leaf disc preventative (powdery mildew on wheat); assay type: in vivo; conditions: foliar, wheat leaf segments cv. Kanzler, inoculated 1 day after application, assessed 6-8 days after application, read-out: control of Blumeria graminis f. sp. tritici (percent disease control compared to untreated)
From the text: Example B4: Blumeria graminis f. sp. tritici (Erysiphe graminis f. sp. tritici)/Wheat/Leaf Disc Preventative (Powdery Mildew on Wheat) Wheat leaf segments cv. Kanzler are placed on agar in a multiwell plate (24-well format) and sprayed with the formulated test compound diluted in water. The leaf disks are inoculated by shaking powdery mildew infected plants above the test plates 1 day after application. […] […]-192.

[6] = tested on: Magnaporthe grisea (Pyricularia oryzae); assay: whole plant or invertebrate; assay type: in vivo; conditions: foliar, read-out: control of Magnaporthe grisea (percent disease control compared to untreated)

COc1ccc(Nc2ccnc(F)c2)nc1C(=O)NCC(C)(C)C [Compound P-136, N-(2,2-dimethylpropyl)-6-[(2-fluoro-4-pyridyl)amino]-3-methoxy-pyridine-2-carboxamide]
≥ 80%: inhibition at 20 ppm [1] | pest or weed control at 200 ppm [2]

CC(C)(C)NC(=O)c1cccc(Nc2cc(F)nc(F)c2)n1 [Compound P-114, N-tert-butyl-6-[(2,6-difluoro-4-pyridyl)amino]pyridine-2-carboxamide]
≥ 80%: inhibition at 20 ppm [3] | inhibition at 20 ppm [4] | inhibition at 20 ppm [1] | pest or weed control at 200 ppm [2] | pest or weed control at 200 ppm [5]

COc1ccc(Nc2cc(F)nc(F)c2)nc1C(=O)NC(C)C(C)C (stereo not shown) [Compound P-167, 6-[(2,6-difluoro-4-pyridyl)amino]-N-(1,2-dimethylpropyl)-3-methoxy-pyridine-2-carboxamide]
≥ 80%: pest or weed control at 200 ppm [2] | pest or weed control at 200 ppm [5]

CCC1(NC(=O)c2nc(Nc3cc(F)nc(F)c3)ccc2OC)CCC1 [Compound P-183, 6-[(2,6-difluoro-4-pyridyl)amino]-N-(1-ethylcyclobutyl)-3-methoxy-pyridine-2-carboxamide]
≥ 80%: inhibition at 20 ppm [3] | inhibition at 20 ppm [4] | pest or weed control at 200 ppm [2] | pest or weed control at 200 ppm [5]

COc1ccc(Nc2cc(F)nc(F)c2)nc1C(=O)NC1(C2CCCCC2)CC1 [Compound P-88, N-(1-cyclohexylcyclopropyl)-6-[(2,6-difluoro-4-pyridyl)amino]-3-methoxy-pyridine-2-carboxamide]
≥ 80%: inhibition at 20 ppm [1] | pest or weed control at 200 ppm [2] | pest or weed control at 200 ppm [6]

COc1ccc(Nc2cc(F)nc(F)c2)nc1C(=O)NCC(C)(C)C [Compound P-30, 6-[(2,6-difluoro-4-pyridyl)amino]-N-(2,2-dimethylpropyl)-3-methoxy-pyridine-2-carboxamide]
≥ 80%: inhibition at 20 ppm [3] | inhibition at 20 ppm [1] | pest or weed control at 200 ppm [2] | pest or weed control at 200 ppm [6] | pest or weed control at 200 ppm [5]

COc1ccc(Nc2cc(F)cc(F)c2)[n+]([O-])c1C(=O)NC(C)(C)C [Compound P-117, N-tert-butyl-6-(3,5-difluoroanilino)-3-methoxy-1-oxido-pyridin-1-ium-2-carboxamide]
≥ 80%: inhibition at 20 ppm [3] | inhibition at 20 ppm [4] | inhibition at 20 ppm [1] | pest or weed control at 200 ppm [2] | pest or weed control at 200 ppm [6] | pest or weed control at 200 ppm [5]

COc1ccc(Nc2cc(F)cc(F)c2)nc1C(=O)NC1CC(c2ccc(Cl)cc2)C1 (stereo not shown) [Compound P-187, N-[3-(4-chlorophenyl)cyclobutyl]-6-(3,5-difluoroanilino)-3-methoxy-pyridine-2-carboxamide]
≥ 80%: inhibition at 20 ppm [3] | inhibition at 20 ppm [4] | inhibition at 20 ppm [1] | pest or weed control at 200 ppm [2]

COc1ccc(Nc2cc(C)cc(C#N)c2)nc1C(=O)NCC(C)(C)C [Compound P-143, 6-(3-cyano-5-methyl-anilino)-N-(2,2-dimethylpropyl)-3-methoxy-pyridine-2-carboxamide]
≥ 80%: pest or weed control at 200 ppm [2]

COc1ccc(Nc2cc(F)nc(F)c2)nc1C(=O)NC(C)C(C)(C)C (stereo not shown) [Compound P-169, 6-[(2,6-difluoro-4-pyridyl)amino]-3-methoxy-N-(1,2,2-trimethylpropyl)pyridine-2-carboxamide]
≥ 80%: pest or weed control at 200 ppm [2] | pest or weed control at 200 ppm [5]

COc1ccc(Nc2cc(F)nc(F)c2)nc1C(=O)NC1(C2CCC2)CCC1 [Compound P-182, N-(1-cyclobutylcyclobutyl)-6-[(2,6-difluoro-4-pyridyl)amino]-3-methoxy-pyridine-2-carboxamide]
≥ 80%: pest or weed control at 200 ppm [2] | pest or weed control at 200 ppm [5]

COc1ccc(Nc2cc(F)nc(F)c2)nc1C(=O)NC1(c2cccc(Cl)n2)CCC1 [Compound P-184, N-[1-(6-chloro-2-pyridyl)cyclobutyl]-6-[(2,6-difluoro-4-pyridyl)amino]-3-methoxy-pyridine-2-carboxamide]
≥ 80%: pest or weed control at 200 ppm [2]

COc1ccc(Nc2cc(F)nc(F)c2)nc1C(=O)NC(C)(C)C(C)(C)C [Compound P-174, 6-[(2,6-difluoro-4-pyridyl)amino]-3-methoxy-N-(1,1,2,2-tetramethylpropyl)pyridine-2-carboxamide]
≥ 80%: inhibition at 20 ppm [3] | pest or weed control at 200 ppm [2]

COc1ccc(Nc2cc(F)nc(F)c2)nc1C(=O)NCCc1ccccc1 [Compound P-31, 6-[(2,6-difluoro-4-pyridyl)amino]-3-methoxy-N-(2-phenylethyl)pyridine-2-carboxamide]
≥ 80%: pest or weed control at 200 ppm [2]

CCc1cccc(Nc2ccc(OC)c(C(=O)NCC(C)(C)C)n2)c1 [Compound P-137, N-(2,2-dimethylpropyl)-6-(3-ethylanilino)-3-methoxy-pyridine-2-carboxamide]
≥ 80%: inhibition at 20 ppm [1] | pest or weed control at 200 ppm [2]

COc1ccc(Nc2cncc(F)c2)nc1C(=O)NCC(C)(C)C [Compound P-105, N-(2,2-dimethylpropyl)-6-[(5-fluoro-3-pyridyl)amino]-3-methoxy-pyridine-2-carboxamide]
≥ 80%: pest or weed control at 200 ppm [2] | pest or weed control at 200 ppm [6] | pest or weed control at 200 ppm [5]

COc1ccc(Nc2cnsc2)nc1C(=O)NCc1cnc(C(F)(F)F)nc1 [Compound P-80, 6-(isothiazol-4-ylamino)-3-methoxy-N-[[2-(trifluoromethyl)pyrimidin-5-yl]methyl]pyridine-2-carboxamide]
≥ 80%: pest or weed control at 200 ppm [2]

COc1ccc(Nc2cc(F)nc(F)c2)nc1C(=O)NC1CCc2cc(C(F)(F)F)ccc21 (stereo not shown) [Compound P-47, 6-[(2,6-difluoro-4-pyridyl)amino]-3-methoxy-N-[5-(trifluoromethyl)indan-1-yl]pyridine-2-carboxamide]
≥ 80%: inhibition at 20 ppm [3] | inhibition at 20 ppm [4] | inhibition at 20 ppm [1] | pest or weed control at 200 ppm [2] | pest or weed control at 200 ppm [6]

COc1ccc(Nc2cc(F)nc(F)c2)nc1C(=O)NC1CC(c2ccc(Cl)cc2)C1 (stereo not shown) [Compound P-188]
≥ 80%: pest or weed control at 200 ppm [2]

COc1ccc(Nc2cc(F)nc(F)c2)nc1C(=O)NC1(C)CC1 [Compound P-92, 6-[(2,6-difluoro-4-pyridyl)amino]-3-methoxy-N-(1-methylcyclopropyl)pyridine-2-carboxamide]
≥ 80%: pest or weed control at 200 ppm [2] | pest or weed control at 200 ppm [5]

COc1ccc(Nc2cc(F)cc(F)c2)nc1C(=O)NC1(c2cccc(Cl)n2)CCC1 [Compound P-177, N-[1-(6-chloro-2-pyridyl)cyclobutyl]-6-(3,5-difluoroanilino)-3-methoxy-pyridine-2-carboxamide]
≥ 80%: inhibition at 20 ppm [3] | inhibition at 20 ppm [4] | inhibition at 20 ppm [1] | pest or weed control at 200 ppm [2] | pest or weed control at 200 ppm [6] | pest or weed control at 200 ppm [5]

COc1ccc(Nc2cc(F)nc(F)c2)nc1C(=O)NC1(C(C)C)CCC1 [Compound P-181, 6-[(2,6-difluoro-4-pyridyl)amino]-N-(1-isopropylcyclobutyl)-3-methoxy-pyridine-2-carboxamide]
≥ 80%: inhibition at 20 ppm [3] | inhibition at 20 ppm [4] | pest or weed control at 200 ppm [2] | pest or weed control at 200 ppm [5]

CC1(C)CCC1NC(=O)c1nc(Nc2cc(F)nc(F)c2)ccc1O (stereo not shown) [Compound P-1, 6-[(2,6-difluoro-4-pyridyl)amino]-N-(2,2-dimethylcyclobutyl)-3-hydroxy-pyridine-2-carboxamide]
≥ 80%: inhibition at 20 ppm [3] | inhibition at 20 ppm [4] | inhibition at 20 ppm [1] | pest or weed control at 200 ppm [2]

COc1ccc(N(C#N)c2cc(F)nc(F)c2)nc1C(=O)NC1CCC1(C)C (stereo not shown) [Compound P-21, 6-[cyano-(2,6-difluoro-4-pyridyl)amino]-N-(2,2-dimethylcyclobutyl)-3-methoxy-pyridine-2-carboxamide]
≥ 80%: pest or weed control at 200 ppm [2] | pest or weed control at 200 ppm [6] | pest or weed control at 200 ppm [5]

CC(C)(C)CNC(=O)c1cccc(Nc2cc(F)nc(F)c2)n1 [Compound P-113, 6-[(2,6-difluoro-4-pyridyl)amino]-N-(2,2-dimethylpropyl)pyridine-2-carboxamide]
≥ 80%: inhibition at 20 ppm [3] | inhibition at 20 ppm [4] | inhibition at 20 ppm [1] | pest or weed control at 200 ppm [6] | pest or weed control at 200 ppm [5]
